Legend:
[1] = system: brains, heart, liver, muscle, and DRG of the NHPs; test: Maturation of TTM-001 and TTM-002 capsids, NGS enrichment in NHP tissues; format: in vivo; details: relative to AAV9 control
How it was run: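 Variants carry mutations within and flanking the loop IV peptide insert: positions 450–466 were triplet-randomized, while positions 449–466 received low-frequency point mutations. The combined pool went into two NHPs, and each peptide was scored by NGS enrichment ratio against AAV9.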

brain = test: Matured TTM-001 and TTM-002 variants, NGS enrichment in mouse brain; format: in vivo, mice; details: relative to AAV9 control
[2] = NGS fold-enrichment of RNA, NHP brain
[3] = NGS fold-enrichment, DRG of NHPs
[4] = NGS fold-enrichment, NHP liver DNA
[5] = NGS fold-enrichment, NHP liver RNA
[6] = NGS fold-enrichment, NHP muscle
[7] = NGS fold-enrichment, RNA, brain of NHPs
[8] = NGS fold-enrichment, heart of NHPs
[9] = NGS fold-enrichment, liver DNA of NHPs
[10] = NGS fold-enrichment, liver RNA of NHPs
[11] = NGS fold-enrichment, muscle of NHPs
[12] = NGS fold-enrichment, brain of mice
[13] = NGS fold-enrichment, mouse brain
[14] = NGS fold-enrichment of matured AAV capsid variants, NHP brain, RNA

Row | Sequence | Fold Enrichment relative to AAV9, Brain (NHP) [1, 2] [fold] | Fold Enrichment relative to AAV9, DRG (NHP) [1, 3] [fold] | Fold Enrichment relative to AAV9, DRG (NHP) ([1]; NGS fold-enrichment, NHP DRG) [fold] | Fold Enrichment relative to AAV9, Heart (NHP) ([1]; NGS fold-enrichment, NHP heart) [fold] | Fold Enrichment relative to AAV9, Liver DNA (NHP) [1, 4] [fold] | Fold Enrichment relative to AAV9, Liver RNA (NHP) [1, 5] [fold] | Fold Enrichment relative to AAV9, Muscle (NHP) [1, 6] [fold] | Fold Enrichment relative to AAV9, Brain (NHP) [1, 7] [fold] | Fold Enrichment relative to AAV9, Heart (NHP) [1, 8] [fold] | Fold Enrichment relative to AAV9, Liver DNA (NHP) [1, 9] [fold] | Fold Enrichment relative to AAV9, Liver RNA (NHP) [1, 10] [fold] | Fold Enrichment relative to AAV9, Muscle (NHP) [1, 11] [fold] | Fold Enrichment relative to AAV9, Brain (Mouse) (brain; [12]) [fold] | Fold Enrichment relative to AAV9, Brain (Mouse) (brain; [13]) [fold] | Fold Enrichment relative to AAV9, Brain (NHP) [1, 14] [fold] | Fold Enrichment relative to AAV9, DRG (NHP) ([1]; NHP DRG) [fold] | Fold Enrichment relative to AAV9, Heart (NHP) ([1]; NHP heart) [fold] | Fold Enrichment relative to AAV9, Liver DNA (NHP) ([1]; NHP liver, DNA) [fold] | Fold Enrichment relative to AAV9, Liver RNA (NHP) ([1]; NHP liver, RNA) [fold] | Fold Enrichment relative to AAV9, Muscle (NHP) ([1]; NHP muscle) [fold] | also measured
1 | KTINGSGSPHSKAQHRIT | 76.849 | 0.105 | 0.105 | 0.499 | 0.214 | 1.424 | 0.170 | 76.849 | 0.499 | 0.214 | 1.424 | 0.170 | 127.000 | 127.000 | – | – | – | – | – | – | –
2 | KTSNASGSPHSKAHNQQT | – | 0.000 | – | – | – | – | – | 59.607 | 0.078 | 0.050 | 0.031 | 0.067 | 67.967 | – | – | – | – | – | – | – | –
3 | KTINGSGSPHSKAQYIHT | 76.170 | 0.000 | 0.000 | 0.014 | 0.168 | 1.523 | 0.033 | 76.170 | 0.014 | 0.168 | 1.523 | 0.033 | 59.649 | 59.649 | – | – | – | – | – | – | –
4 | KTVNGSGSPHSKARDQQT | 124.789 | 0.123 | 0.123 | 0.039 | 0.454 | 0.569 | 0.312 | 124.789 | 0.039 | 0.454 | 0.569 | 0.312 | 132.137 | 132.137 | – | – | – | – | – | – | –
5 | KNINGSGSPHSKAQNHQT | – | – | – | – | – | – | – | – | – | – | – | – | – | – | 54.248 | 0.000 | 0.034 | 0.075 | 0.340 | 0.000 | Fold Enrichment relative to AAV9, Brain (Mouse) (brain; mouse brain): 74.979 fold
6 | KTINGHDSPHKSRQDQHT | 75.595 | – | 0.000 | 0.049 | 0.045 | 0.030 | 0.118 | – | – | – | – | – | – | 8.540 | – | – | – | – | – | – | –
7 | KTCNASGSPHSKAQNQQT | – | – | – | – | – | – | – | – | – | – | – | – | – | – | 52.998 | 0.000 | 0.011 | 0.141 | 0.897 | 0.000 | Fold Enrichment relative to AAV9, Brain (Mouse) (brain; mouse brain): 67.934 fold
8 | KTESASGSPHSKAQNQQT | – | 0.000 | – | – | – | – | – | 68.651 | 0.000 | 0.084 | 0.274 | 0.000 | 80.500 | – | – | – | – | – | – | – | –
9 | KSINGSGSPHSKTQSQQT | – | – | – | – | – | – | – | – | – | – | – | – | – | – | 58.608 | 0.000 | 3.017 | 0.017 | 0.155 | 0.000 | Fold Enrichment relative to AAV9, Brain (Mouse) (brain; mouse brain): 71.397 fold
10 | KTEMKHDSPHKSGQNQQT | 240.075 | – | 0.000 | 0.000 | 0.000 | 0.000 | 0.000 | – | – | – | – | – | – | 3.183 | – | – | – | – | – | – | –

— US20260250318A1, “COMPOSITIONS AND METHODS FOR CROSSING THE BLOOD BRAIN BARRIER” (VOYAGER THERAPEUTICS, INC., priority 2022, published 2026)
